We go through 16 compounds from US8389564B2, “Proteasome inhibitors” (priority 2008, dated 2013).

The structures appear in SMILES notation. Where two headings read alike, the source gives them in different places.

For experiment [1], the target named is T1, caspase-like activity of the 20S proteasome (Oryctolagus cuniculus, UniProt A0A5F9DQW2).
T1 construct: In Vitro Purified Rabbit Muscle 20S Proteasome Activity Assays; from tissue; host or cells: rabbit muscle
T1 sequence (A0A5F9DQW2 1-212): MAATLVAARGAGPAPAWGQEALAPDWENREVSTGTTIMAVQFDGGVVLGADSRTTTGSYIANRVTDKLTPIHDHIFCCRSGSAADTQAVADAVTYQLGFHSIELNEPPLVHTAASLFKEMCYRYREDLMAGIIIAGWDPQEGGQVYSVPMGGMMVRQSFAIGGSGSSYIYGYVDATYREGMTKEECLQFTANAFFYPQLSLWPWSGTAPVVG
As to the kind of experiment: In vitro purified rabbit muscle 20S proteasome assay, caspase-like (C-L) activity, Z-LLEAMC substrate. It is filed as biochemical. As to the method: (§1) Serial diluted test compounds were added in duplicate to 1 μg/ml purified rabbit 20S proteasome in assay buffer containing 20 mM HEPES, pH7.3, 0.5 mM EDTA, 0.05% Triton X-100 and 0.035% SDS and pre-incubated for 5 min at 37° C. Reactions were initiated by the addition of the Suc-LLVY-AMC peptide substrate at a final concentration of 20 μM. Fluorescence of the cleaved peptide substrate was measured at λex=390 nm and λem=460 nm using a Fluoroskan Ascent 96-well microplate reader (Thermo Electron, Waltham, Mass.). […] The caspase-like activity of the 20S proteasome was determined as described above except that Z-LLEAMC was used as the peptide substrate. For the evaluation of the trypsin-like activity, the SDS was omitted from the assay buffer and Boc-LRR-AMC was used as the peptide substrate.

Experiment [2] concerns the target T2, chymotrypsin-like activity of the 20S proteasome (Oryctolagus cuniculus, UniProt G1T4Q9).
T2 construct: In Vitro Purified Rabbit Muscle 20S Proteasome Activity Assays; from tissue; host or cells: rabbit muscle
T2 sequence (G1T4Q9 1-263): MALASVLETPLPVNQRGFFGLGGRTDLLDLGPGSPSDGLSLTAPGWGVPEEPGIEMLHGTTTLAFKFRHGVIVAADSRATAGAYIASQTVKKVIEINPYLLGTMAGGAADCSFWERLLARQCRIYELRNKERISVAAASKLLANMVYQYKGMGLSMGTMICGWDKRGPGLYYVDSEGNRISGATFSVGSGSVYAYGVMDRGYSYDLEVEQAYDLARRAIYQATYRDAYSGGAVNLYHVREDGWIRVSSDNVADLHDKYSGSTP
The experiment can be described thus: In vitro purified rabbit muscle 20S proteasome assay, chymotrypsin-like (CT-L) activity, Suc-LLVY-AMC substrate. Format: biochemical. As to the method:
as §1

In experiment [3] the target is T3, trypsin-like activity of the 20S proteasome (Oryctolagus cuniculus, UniProt G1SWK8).
T3 construct: In Vitro Purified Rabbit Muscle 20S Proteasome Activity Assays; from tissue; host or cells: rabbit muscle
T3 sequence (G1SWK8 1-271): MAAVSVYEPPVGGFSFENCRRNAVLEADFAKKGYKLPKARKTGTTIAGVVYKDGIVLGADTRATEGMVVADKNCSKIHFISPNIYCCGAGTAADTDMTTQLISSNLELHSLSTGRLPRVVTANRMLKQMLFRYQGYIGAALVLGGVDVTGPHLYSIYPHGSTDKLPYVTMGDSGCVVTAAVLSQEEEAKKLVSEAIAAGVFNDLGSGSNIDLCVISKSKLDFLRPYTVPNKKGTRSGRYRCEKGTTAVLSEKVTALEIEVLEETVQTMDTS
As to the kind of experiment: In vitro purified rabbit muscle 20S proteasome assay, trypsin-like (T-L) activity, Boc-LRR-AMC substrate. It is filed as biochemical. As to the method:
as §1

Experiment [4] relates to RPMI 8226. The experiment can be described thus: Cytotoxicity in RPMI 8226. The settings on record: Homo sapiens, RPMI-8226, read-out: Cytotoxicity in RPMI 8226 Average IC50 ± SD (nM).
Protocol: B16-F10 (ATCC; CRL-6475), DU 145 (ATCC; HTB-81), HEK293 (ATCC; CRL-1573), HT-29 (ATCC; HTB-38), LoVo (ATCC; CCL-229), MDA-MB-231 (ATCC; HTB-26), MIA PaCa-2 (ATCC; CRL-1420), NCI-H292 (ATCC; CRL-1848), OVCAR-3 (ATCC, HTB-161), PANC-1 (ATCC; CRL-1469), PC-3 (ATCC; CRL-1435), RPMI 8226 (ATCC; CCL-155) and U266 (ATCC; TIB-196) are maintained in appropriate culture media. The cells are cultured in an incubator at 37° C. in 5% CO2 and 95% humidified air.
20 mM stock solutions of the test compound are prepared in 100% DMSO, aliquoted and stored at −80° C. […] The plates are returned to the incubator for 48 hours. The final concentration of DMSO is 0.25% in all samples.
Following 48 hours of drug exposure, 10 μl of 0.2 mg/ml resazurin (obtained from Sigma-Aldrich Chemical Co.) in Mg^2+, Ca^2+ free phosphate buffered saline are added to each well and the plates are returned to the incubator for 3-6 hours. Since living cells metabolize Resazurin, the fluorescence of the reduction product of Resazurin is measured using a Fusion microplate fluorometer (Packard Bioscience) with λex=535 nm and λem=590 nm filters. Resazurin dye in medium without cells is used to determine the background, which was subtracted from the data for all experimental wells.
The mark [5] stands for this setting: rabbit 20S proteasome, mean ± SD of 3 or more experiments, read-out: C-L IC50.
The mark [6] stands for this setting: rabbit 20S proteasome, mean ± SD of 3 or more experiments, read-out: CT-L IC50.
Where [7] appears, read: rabbit 20S proteasome, mean ± SD of 3 or more experiments, read-out: T-L IC50.

The IC50 is the midpoint of a concentration-inhibition curve. Take `CC(C)(C)c1ccc(S(=O)(=O)OCC[C@H]2C(=O)N[C@@]3([C@@H](O)[C@@H]4C=CCCC4)C(=O)O[C@@]23C)cc1`: the IC50 was determined as 180 ± 4 nM in experiment [1], 3.2 ± 0.4 nM in experiment [2], 31 ± 1 nM in experiment [3] and 94 ± 18 nM in experiment [4].

In the case of `C[C@@]12OC(=O)[C@]1([C@@H](O)[C@@H]1C=CCCC1)NC(=O)[C@@H]2CCOS(=O)(=O)c1ccc(-c2ccccc2)cc1`, the IC50 in experiment [1] worked out at 101 ± 11 nM; in experiment [2], 3.8 ± 0.1 nM; in experiment [3] it was 15 ± 1 nM; in experiment [4] it was 43 ± 12 nM.

Turning to `C[C@@]12OC(=O)[C@]1([C@@H](O)[C@@H]1C=CCCC1)NC(=O)[C@@H]2CCOS(=O)(=O)c1ccc(Oc2ccccc2)cc1`, the IC50 in experiment [1] was determined as 85 ± 9 nM; in experiment [2] it was 3.2 ± 0.2 nM; in experiment [3], 14 ± 1 nM; in experiment [4], 78 ± 25 nM.

With `C[C@@]12OC(=O)[C@]1([C@@H](O)[C@@H]1C=CCCC1)NC(=O)[C@@H]2CCOC(=O)c1ccc(-c2ccccc2)cc1`, the IC50 was found to be 160 ± 9 nM in experiment [1], 9 ± 2 nM in experiment [2], 52 ± 5 nM in experiment [3] and 290 ± 108 nM in experiment [4].

For `C[C@@]12OC(=O)[C@]1([C@@H](O)[C@@H]1C=CCCC1)NC(=O)[C@@H]2CCBr` [CH2CH2Br], the IC50 in experiment [1] (setting [5]) was 290 ± 60 nM; in experiment [2] (setting [6]) it was 2.6 ± 0.4 nM; in experiment [3] (setting [7]), 14 ± 2 nM; in experiment [4], 7.8 ± 1.4 nM.

Regarding `CCC[C@H]1C(=O)N[C@@]2([C@@H](O)[C@@H]3C=CCCC3)C(=O)O[C@@]12C` [CH2CH2CH3], the IC50 in experiment [1] (setting [5]) worked out at 1200 ± 200 nM; in experiment [2] (setting [6]), 24 ± 5 nM; in experiment [3] (setting [7]), 1100 ± 200 nM; in experiment [4] it was 6300 nM.

In the case of `C[C@@]12OC(=O)[C@]1([C@@H](O)[C@@H]1C=CCCC1)NC(=O)[C@@H]2CCCl` [CH2CH2Cl, Salinosporamide A, reference compound], the IC50 in experiment [4] turned out to be 9.8 ± 3 nM.

Consider `C[C@@]12OC(=O)[C@]1([C@@H](O)[C@@H]1C=CCCC1)NC(=O)[C@@H]2CCF` [CH2CH2F], for which the IC50 in experiment [1] (setting [5]) turned out to be 781 ± 47 nM; in experiment [2] (setting [6]), 10 ± 0.7 nM; in experiment [3] (setting [7]) it was 525 ± 15 nM; in experiment [4], 875 ± 430 nM.

With `C[C@@]12OC(=O)[C@]1([C@@H](O)[C@@H]1C=CCCC1)NC(=O)[C@@H]2CCI` [CH2CH2I], the IC50 in experiment [1] (setting [5]) worked out at 410 ± 230 nM; in experiment [2] (setting [6]) it was 2.8 ± 0.5 nM; in experiment [3] (setting [7]), 13 ± 3 nM; in experiment [4] it was 6.9 ± 0.9 nM.

For `CC(=O)OCC[C@H]1C(=O)N[C@@]2([C@@H](O)[C@@H]3C=CCCC3)C(=O)O[C@@]12C` [CH2CH2OC(O)CH3], the IC50 was determined as 971 ± 56 nM in experiment [1], 9.1 ± 0.3 nM in experiment [2], 745 ± 40 nM in experiment [3] and 20000 nM in experiment [4].

With `CN(C)c1cccc2c(S(=O)(=O)OCC[C@H]3C(=O)N[C@@]4([C@@H](O)[C@@H]5C=CCCC5)C(=O)O[C@@]34C)cccc12` [CH2CH2ODs], the IC50 amounted to 90 ± 11 nM in experiment [1], 3 ± 0.5 nM in experiment [2], 12 ± 2.3 nM in experiment [3] and 30 ± 6 nM in experiment [4].

As to `C[C@@]12OC(=O)[C@]1([C@@H](O)[C@@H]1C=CCCC1)NC(=O)[C@@H]2CCO` [CH2CH2OH], the IC50 in experiment [1] (setting [5]) came to 1200 ± 57 nM; in experiment [2] (setting [6]), 14 ± 1.5 nM; in experiment [3] (setting [7]), 1200 ± 150 nM; in experiment [4], 38000 nM.

Take `C[C@@]12OC(=O)[C@]1([C@@H](O)[C@@H]1C=CCCC1)NC(=O)[C@@H]2CCOS(C)(=O)=O` [CH2CH2OMs]: the half-inhibitory concentration (IC50) in experiment [1] amounted to 873 ± 32 nM; in experiment [2], 4.3 ± 0.8 nM; in experiment [3], 65 ± 8 nM; in experiment [4] it was 144 ± 46 nM.

As to `Cc1ccc(S(=O)(=O)OCC[C@H]2C(=O)N[C@@]3([C@@H](O)[C@@H]4C=CCCC4)C(=O)O[C@@]23C)cc1` [CH2CH2OTs], the IC50 came out at 127 ± 5 nM in experiment [1], 2.5 ± 0.4 nM in experiment [2], 9.9 ± 0.2 nM in experiment [3] and 27 ± 8.5 nM in experiment [4].

For the compound `CC[C@H]1C(=O)N[C@@]2([C@@H](O)[C@@H]3C=CCCC3)C(=O)O[C@@]12C` [CH2CH3], the IC50 in experiment [3] (setting [7]) worked out at 610 ± 35 nM; in experiment [4], 6300 nM.

Regarding `C[C@H]1C(=O)N[C@@]2([C@@H](O)[C@@H]3C=CCCC3)C(=O)O[C@@]12C` [CH3], the IC50 came out at 460 ± 49 nM in experiment [1] (setting [5]), 7.5 ± 0.6 nM in experiment [2] (setting [6]), 370 ± 44 nM in experiment [3] (setting [7]) and 6300 nM in experiment [4].
